Experimental data as given in patent US11214594B2, “Antimicrobial peptide having synergistic antibacterial effect with antibiotics on multidrug resistant bacteria, and use thereof” (priority 2016, dated 2022).
Where two headings read alike, the source gives them in different places. Where a SMILES comes first, the peptide text is derived from it.

What was measured:
MDREC 1229 [1] = test: MIC of antibiotic during combined treatment with antimicrobial peptide; format: cell-based, Escherichia coli; conditions: peptide treatment concentration 64 μg/ml
Method in brief: (§1)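 Broth microdilution in MH medium; strains were diluted to 2×10^6 CFU per ml before plating. Peptide was serially diluted stepwise at 2:1 starting from its MIC, and MH-diluted antibiotic was then added to determine MIC. The reversed arrangement was also tested.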

A. baumannii [2] = test: as above; format: cell-based, Acinetobacter baumannii; conditions: for Antibiotic MIC, Erythromycin / Antibiotic MIC, Linezolid / Antibiotic MIC, Vancomycin: A. baumannii
Method in brief: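 First, antibiotic solution is diluted with MH medium; next, the dilution is dispensed into wells containing peptide; finally, the orientation is swapped and MIC of each mixture determined.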

E. coli = format: cell-based, Escherichia coli; conditions: E. coli
Method in brief: as §1

MDREC 1229 [3] = format: cell-based, Escherichia coli
Method in brief: as §1

A. baumannii [4] = test: MIC of antimicrobial peptide during combined treatment with antibiotic; format: cell-based, Acinetobacter baumannii
Method in brief: as §1

MDRAB 12035 = test: as above; format: cell-based, Acinetobacter baumannii
Method in brief: as §1

[5] = combined with peptide at 1 μg/ml
[6] = combined with peptide at 2 μg/ml
[7] = combined with peptide at 4 μg/ml
[8] = combined with peptide at 6 μg/ml
[9] = combined with peptide at 8 μg/ml
[10] = combined with peptide at 16 μg/ml
[11] = combined with peptide at 32 μg/ml
[12] = combined with peptide at 64 μg/ml
[13] = with Erythromycin […] (Conc./MIC 1)
[14] = erythromycin 4 μg/ml (Conc./MIC 1/8)
[15] = erythromycin 8 μg/ml (Conc./MIC 1/4)
[16] = erythromycin 16 μg/ml (Conc./MIC 1/2)
[17] = erythromycin 32 μg/ml (Conc./MIC 1)
[18] = vancomycin 512 μg/ml (Conc./MIC 1/2)
[19] = vancomycin 1024 μg/ml (Conc./MIC 1)

SMILES: CC[C@H](C)[C@H](NC(=O)[C@H](CCCCN)NC(=O)[C@H](Cc1c[nH]c2ccccc12)NC(=O)[C@@H](N)CCCNC(=N)N)C(=O)N[C@@H](Cc1ccccc1)C(=O)N[C@@H](CCCCN)C(=O)N[C@@H](CCCCN)C(=O)N[C@H](C(=O)N1CCC[C@H]1C(=O)N[C@@H](CCCCN)C(=O)N[C@@H](Cc1ccccc1)C(=O)N[C@@H](CC(C)C)C(=O)N[C@@H](Cc1c[nH]cn1)C(=O)N[C@@H](CO)C(=O)N[C@@H](CC(C)C)C(=O)N[C@@H](CCCCN)C(=O)N[C@@H](CCCCN)C(=O)N[C@@H](Cc1ccccc1)C(N)=O)[C@@H](C)CC [PapMA-6, RWK IFK KIP KFL HSL KKF-NH2] (H-RWKIFKKIPKFLHSLKKF-NH2; N-terminus assumed)
- Antibiotic MIC, Vancomycin (MDREC 1229 [1]): 0 µg/mL
- Synergistic effect of antibacterial activity with existing antibiotics compared with PapMA-1 (A. baumannii [2]; A. baumannii and MDRAB 12035): higher level than the PapMA-1 peptide
- Antibiotic MIC, Erythromycin (A. baumannii [2]; [5]): 16 µg/mL
- Antibiotic MIC, Linezolid (A. baumannii [2]; [5]): 128 µg/mL
- Antibiotic MIC, Vancomycin (A. baumannii [2]; [5]): >128 µg/mL
- Antibiotic MIC, Erythromycin (A. baumannii [2]; [6]): 8 µg/mL
- Antibiotic MIC, Linezolid (A. baumannii [2]; [6]): 64 µg/mL
- Antibiotic MIC, Vancomycin (A. baumannii [2]; [6]): 128 µg/mL
- Antibiotic MIC, Erythromycin (A. baumannii [2]; [7]): 4 µg/mL
- Antibiotic MIC, Linezolid (A. baumannii [2]; [7]): 8 µg/mL
- Antibiotic MIC, Vancomycin (A. baumannii [2]; [7]): 16 µg/mL
- Antibiotic MIC, Erythromycin (A. baumannii [2]; [8]): 2 µg/mL
- Antibiotic MIC, Linezolid (A. baumannii [2]; [8]): 4 µg/mL
- Antibiotic MIC, Vancomycin (A. baumannii [2]; [8]): 8 µg/mL
- Antibiotic MIC, Erythromycin (A. baumannii [2]; [9]): 0.125 µg/mL
- Antibiotic MIC, Linezolid (A. baumannii [2]; [9]): 2 µg/mL
- Antibiotic MIC, Vancomycin (A. baumannii [2]; [9]): 4 µg/mL
- Antibiotic MIC, Erythromycin (A. baumannii [2]; [10]): 0.0625 µg/mL
- Antibiotic MIC, Linezolid (A. baumannii [2]; [10]): 0.5 µg/mL
- Antibiotic MIC, Vancomycin (A. baumannii [2]; [10]): 2 µg/mL
- Antibiotic MIC, Erythromycin (A. baumannii [2]; [11]): 0 µg/mL
- Antibiotic MIC, Linezolid (A. baumannii [2]; [11]): 0 µg/mL
- Antibiotic MIC, Vancomycin (A. baumannii [2]; [11]): 0 µg/mL
- Antibiotic MIC, Erythromycin (A. baumannii [2]; [12]): 0 µg/mL
- Antibiotic MIC, Linezolid (A. baumannii [2]; [12]): 0 µg/mL
- Antibiotic MIC, Vancomycin (A. baumannii [2]; [12]): 0 µg/mL
- Peptide MIC (E. coli; [13]): 0 µg/mL
- Peptide MIC (E. coli; with Linezolid […] (Conc./MIC 1)): 0 µg/mL
- Peptide MIC (E. coli; with Vancomycin 1024 μg/ml (Conc./MIC 1)): 0 µg/mL
- Peptide MIC (MDREC 1229 [3]; [13]): 0 µg/mL
- Peptide MIC (MDREC 1229 [3]; with Linezolid 512 μg/ml (Conc./MIC 1)): 0 µg/mL
- Peptide MIC during treatment with antibiotic (A. baumannii [4]; [14]): 4 µg/mL
- Peptide MIC during treatment with antibiotic (A. baumannii [4]; [15]): 2 µg/mL
- Peptide MIC during treatment with antibiotic (A. baumannii [4]; [16]): 1 µg/mL
- Peptide MIC during treatment with antibiotic (A. baumannii [4]; [17]): 0 µg/mL
- Peptide MIC during treatment with antibiotic (A. baumannii [4]; linezolid 32 μg/ml (Conc./MIC 1/8)): 4 µg/mL
- Peptide MIC during treatment with antibiotic (A. baumannii [4]; linezolid 64 μg/ml (Conc./MIC 1/4)): 2 µg/mL
- Peptide MIC during treatment with antibiotic (A. baumannii [4]; linezolid […] (Conc./MIC 1)): 0 µg/mL
- Peptide MIC during treatment with antibiotic (A. baumannii [4]; linezolid […] (Conc./MIC 1/2)): 1 µg/mL
- Peptide MIC during treatment with antibiotic (A. baumannii [4]; [18]): 0.25 µg/mL
- Peptide MIC during treatment with antibiotic (A. baumannii [4]; [19]): 0 µg/mL
- Peptide MIC during treatment with antibiotic (A. baumannii [4]; vancomycin […] (Conc./MIC 1/4)): 0.5 µg/mL
- Peptide MIC during treatment with antibiotic (A. baumannii [4]; vancomycin […] (Conc./MIC 1/8)): 2 µg/mL
- Peptide MIC during treatment with erythromycin (MDRAB 12035; [14]): 4 µg/mL
- Peptide MIC during treatment with erythromycin (MDRAB 12035; [15]): 2 µg/mL
- Peptide MIC during treatment with erythromycin (MDRAB 12035; [16]): 1 µg/mL
- Peptide MIC during treatment with erythromycin (MDRAB 12035; [17]): 0 µg/mL
- Peptide MIC during treatment with linezolid (MDRAB 12035; linezolid 64 μg/ml (Conc./MIC 1/8)): 2 µg/mL
- Peptide MIC during treatment with linezolid (MDRAB 12035; linezolid 512 μg/ml (Conc./MIC 1)): 0 µg/mL
- Peptide MIC during treatment with linezolid (MDRAB 12035; linezolid […] (Conc./MIC 1/2)): 1 µg/mL
- Peptide MIC during treatment with linezolid (MDRAB 12035; linezolid […] (Conc./MIC 1/4)): 1 µg/mL
- Peptide MIC during treatment with vancomycin (MDRAB 12035; [18]): 1 µg/mL
- Peptide MIC during treatment with vancomycin (MDRAB 12035; [19]): 0.25 µg/mL
- Peptide MIC during treatment with vancomycin (MDRAB 12035; vancomycin […] (Conc./MIC 1/4)): 2 µg/mL
- Peptide MIC during treatment with vancomycin (MDRAB 12035; vancomycin […] (Conc./MIC 1/8)): 2 µg/mL
